Eleven compounds from patent US12319701B2, “Antagonists of the muscarinic acetylcholine receptor M4” (priority 2019, dated 2025) can be followed below.

Assay [1] concerns catalepsy induced by the DA receptor antagonist haloperidol. Description: Reversal of haloperidol-induced catalepsy by scopolamine in mice. It counts as in vivo. The text has this:
Furthermore, haloperidol-induced catalepsy, a model of parkinsonian motor disability, is reduced in M4 knockout mice as compared to wild-type controls. […] The reversal by scopolamine was uncommonly robust and more pronounced than we observe with agents targeting a number of other targets being evaluated for potential antiparkinsonian effects, including metabotropic glutamate (mGlu) receptors mGlu4 or mGlu5, A2A adenosine receptors, and NMDA receptors. […] Taken together with the extensive studies of M4 modulation of basal ganglia and motor function, these studies provide compelling evidence that M4 is the dominant mAChR subtype involved in the antiparkinsonian effects of non-selective mAChR antagonists and provide support for discovery and development of selective M4 antagonists for treatment of neurodegenerative disease such as PD, dystonia, tardive dyskinesia and other movement disorders.

A further assay concerns the target T1, Human M4 (Homo sapiens, UniProt P08173).
T1 construct: expressed in transfected cells; host or cells: CHO-K1 (ATCC), stably co-expressing chimeric G protein Gqi5
T1 sequence (P08173 1-479): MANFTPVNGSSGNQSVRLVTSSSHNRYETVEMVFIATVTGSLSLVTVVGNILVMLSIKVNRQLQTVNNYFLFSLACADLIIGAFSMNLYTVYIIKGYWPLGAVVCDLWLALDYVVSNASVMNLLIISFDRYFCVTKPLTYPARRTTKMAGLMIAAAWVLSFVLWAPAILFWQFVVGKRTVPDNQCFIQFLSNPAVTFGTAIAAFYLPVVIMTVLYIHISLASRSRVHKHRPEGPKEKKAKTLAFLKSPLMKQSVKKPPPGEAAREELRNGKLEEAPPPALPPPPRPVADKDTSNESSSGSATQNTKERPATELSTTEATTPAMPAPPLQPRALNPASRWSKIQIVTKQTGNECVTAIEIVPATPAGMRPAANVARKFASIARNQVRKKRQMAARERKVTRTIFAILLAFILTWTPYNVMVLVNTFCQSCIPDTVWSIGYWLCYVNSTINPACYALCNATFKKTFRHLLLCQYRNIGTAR
In words: mAChR M4 cell-based functional assay (calcium flux, Fluo-4, M4/Gqi5/CHO-K1 cells). To be noted: for remaining activity at 30 µM: CHO-K1, read-out: Human M4 Emin (%), % ACh maximum at 30 μM. Here is the method: Human or rat M4 cDNA, along with the chimeric G protein Gqi5, were transfected into Chinese hamster ovary (CHO-K1) cells purchased from the American Type Culture Collection using Lipofectamine2000. M4/Gqi5/CHO cells were grown in Ham's F-12 medium containing 10% heat-inactivated fetal bovine serum (FBS), 20 mM HEPES, 500 μg/mL 418 sulfate, and 200 μg/mL Hygromycin B.
For high throughput measurement of agonist-evoked increases in intracellular calcium, CHO-K1 cells stably expressing muscarinic receptors were plated in growth medium lacking 418 and hygromycin at 15,000 cells/20 μL/well in Greiner 384-well black-walled, tissue culture (TC)-treated, clear-bottom plates (VWR). Cells were incubated overnight at 37° C. and 5% CO2. The next day, cells were washed using an ELX 405 (BioTek) with assay buffer; the final volume was then aspirated to 20 μL. Next, 20 μL of a 2.3 μM stock of Fluo-4/acetoxymethyl ester (Invitrogen, Carlsbad, CA), prepared as a 2.3 mM stock in DMSO and mixed in a 1:1 ratio with 10% (w/v) Pluronic F-127 and diluted in assay buffer, was added to the wells and the cell plates were incubated for 50 min at 37° C. and 5% CO2. Dye was removed by washing with the ELX 405 and the final volume was aspirated to 20 μL. Compound master plates were formatted in a 10 point concentration-response curve (CRC) format (1:3 dilutions) in 100% DMSO with a starting concentration of 10 or 1 mM using a BRAVO liquid handler (Agilent). Test compound CRCs were then transferred to daughter plates (240 nL) using the Echo acoustic plate reformatter (Labcyte, Sunnyvale, CA) and then diluted into assay buffer (40 μL) to a 2× stock using a Thermo Fisher Combi (Thermo Fisher Scientific, Waltham, MA).
Calcium flux was measured using the Functional Drug Screening System (FDSS) 6000 or 7000 (Hamamatsu Corporation, Tokyo, Japan) as an increase in the fluorescent static ratio. Compounds were applied to cells (20 μL, 2×) using the automated system of the FDSS at 2 seconds into the protocol and the data were collected at 1 Hz. At 143 s, 10 μL of an EC20 concentration of the muscarinic receptor agonist acetylcholine was added (5×), followed by the addition of 12 μL of an EC80 concentration of acetylcholine at the 268 s time point (5×). Agonist activity was analyzed as a concentration-dependent increase in calcium mobilization upon compound addition. Positive allosteric modulator activity was analyzed as a concentration-dependent increase in the EC20 acetylcholine response. Antagonist activity was analyzed as a concentration-dependent decrease in the ECK) acetylcholine response; for the purposes of the tables herein, an IC50 (inhibitory concentration 50) was calculated as a concentration-dependent decrease of the response elicited by an ECK) concentration of acetylcholine. Concentration-response curves were generated using a four-parameter logistical equation in XLFit curve fitting software (IDBS, Bridgewater, NJ) for Excel (Microsoft, Redmond, WA) or Prism (GraphPad Software, Inc., San Diego, CA) or the Dotmatics software platform (Dotmatics, Bishop's Stortford, UK).
Compounds were synthesized as described above. Activity (IC50 and Emin) was determined in the mAChR M4 cell-based functional assay as described above and the data are shown in Table 2.

On to `CN1[C@@H]2C[C@@H](OC(=O)[C@H](CO)c3ccccc3)C[C@H]1[C@@H]1O[C@@H]12` [scopolamine], for which, in assay [1] (M4 KO mice), the “Reduction of haloperidol-induced catalepsy” value is on record as “ineffective in reducing catalepsy”. Moreover, the “Reversal of haloperidol-induced catalepsy” value in assay [1] (WT mice) is given as “completely reversed”.
`C[C@H]1CCCN(c2nnc(N[C@H]3C[C@@H]4CN(CC5CCOCC5)C[C@@H]4C3)c3ccsc23)C1` [compound 21, 7-((S)-3-methylpiperidin-1-yl)-N-((3aR,5s,6aS)-2-((tetrahydro-2H-pyran-4-yl)methyl)octahydrocyclopenta[c]pyrrol-5-yl)thieno[2,3-d]pyridazin-4-amine]: at Human M4, the concentration for half-maximal inhibition (IC50) came out at 15.1 nM and the remaining activity at 30 µM is 4%.
For `FC1(F)CCN(c2nnc(N[C@H]3C[C@@H]4CN(CC5CCOCC5)C[C@@H]4C3)c3c2CCCC3)CC1` [compound 22, 4-(4,4-difluoropiperidin-1-yl)-N-((3aR,5s,6aS)-2-((tetrahydro-2H-pyran-4-yl)methyl)octahydrocyclopenta[c]pyrrol-5-yl)-5,6,7,8-tetrahydrophthalazin-1-amine], in that order: 14.6 nM and 3%.
As to `Cc1ccc(F)cc1-c1nnc(N[C@H]2C[C@@H]3CN(CC4CCOCC4)C[C@@H]3C2)c2ccsc12` [compound 3, 7-(5-fluoro-2-methylphenyl)-N-((3aR,5s,6aS)-2-((tetrahydro-2H-pyran-4-yl)methyl)octahydrocyclopenta[c]pyrrol-5-yl)thieno[2,3-d]pyridazin-4-amine], on Human M4, the IC50 was found to be 5.11 nM and the remaining activity at 30 µM came to 3%.
As for `COc1ccccc1-c1nnc(N[C@H]2C[C@@H]3CN(CC4CCOCC4)C[C@@H]3C2)c2ccsc12` [compound 6, 7-(2-methoxyphenyl)-N-((3aR,5s,6aS)-2-((tetrahydro-2H-pyran-4-yl)methyl)octahydrocyclopenta[c]pyrrol-5-yl)thieno[2,3-d]pyridazin-4-amine], at Human M4, the IC50 was found to be 8080 nM and the remaining activity at 30 µM turned out to be 20%.
The corresponding values for `Fc1ccc(F)c(-c2nnc(N[C@H]3C[C@@H]4CN(CC5CCOCC5)C[C@@H]4C3)c3ccsc23)c1` [compound 2, 7-(2,5-difluorophenyl)-N-((3aR,5s,6aS)-2-((tetrahydro-2H-pyran-4-yl)methyl)octahydrocyclopenta[c]pyrrol-5-yl)thieno[2,3-d]pyridazin-4-amine] are 2.91 nM and 3%.
The corresponding values for `Cc1c(-c2nnc(N[C@H]3C[C@@H]4CN(CC5CCOCC5)C[C@@H]4C3)c3ccsc23)ccc2nn(C)cc12` [compound 17, 7-(2,4-dimethyl-2H-indazol-5-yl)-N-((3aR,5s,6aS)-2-((tetrahydro-2H-pyran-4-yl)methyl)octahydrocyclopenta[c]pyrrol-5-yl)thieno[2,3-d]pyridazin-4-amine] are 0.65 nM and 3%.
Consider `Clc1nnc(N[C@H]2C[C@@H]3CN(CC4CCOCC4)C[C@@H]3C2)c2sccc12` [compound 12, 4-chloro-N-((3aR,5s,6aS)-2-((tetrahydro-2H-pyran-4-yl)methyl)octahydrocyclopenta[c]pyrrol-5-yl)thieno[2,3-d]pyridazin-7-amine], for which, on Human M4, the IC50 came to 284 nM and the remaining activity at 30 µM is 5%.
`Cc1ccc(F)cc1-c1nnc(N[C@H]2C[C@@H]3CN(CC4CCOCC4)C[C@@H]3C2)c2sccc12` [compound 11, 4-(5-fluoro-2-methylphenyl)-N-((3aR,5s,6aS)-2-((tetrahydro-2H-pyran-4-yl)methyl)octahydrocyclopenta[c]pyrrol-5-yl)thieno[2,3-d]pyridazin-7-amine]: on Human M4, the IC50 amounted to 1.6 nM and the remaining activity at 30 µM is 3%.
In the case of `[2H]C([2H])(C1CCOCC1)N1C[C@H]2C[C@H](Nc3nnc(-c4cc(F)ccc4F)c4sccc34)C[C@H]2C1` [compound 18, 7-(2,5-difluorophenyl)-N-((3aR,5s,6aS)-2-((tetrahydro-2H-pyran-4-yl)methyl-d2)octahydrocyclopenta[c]pyrrol-5-yl)thieno[2,3-d]pyridazin-4-amine], at Human M4, the IC50 turned out to be 3 nM and the remaining activity at 30 µM was determined as 3%.
For `[2H]C([2H])(C1CCOCC1)N1C[C@H]2C[C@H](Nc3nnc(-c4cc(F)ccc4F)c4ccccc34)C[C@H]2C1` [compound 27, 4-(2,5-difluorophenyl)-N-((3aR,5s,6aS)-2-((tetrahydro-2H-pyran-4-yl)methyl-d2)octahydrocyclopenta[c]pyrrol-5-yl)phthalazin-1-amine], at Human M4, the IC50 worked out at 12 nM and the remaining activity at 30 µM is 3%.

The IC50 is the concentration needed to halve the response being measured.
